Assay results taken from patent publication US11213527B2, “Inhibitory effect of low molecular weight compound on cancer and fibrosis” (NATIONAL UNIVERSITY CORPORATION TOTTORI UNIVERSITY, priority 2014, dated 2022).

Experiments:
[1] = system: Wnt/β-catenin signal; assay: Dual-luciferase reporter assay in HSC2 cells; assay type: cell-based; conditions: 48 hours
Experimental: (§1) First, 5×10^4 of HSC2 cells were seeded on each well of a 24-well plate. After 24 hours, transfection was carried out by using 1 μL of lipofectamine 2000 (Invitrogen, Life Technologies Corp., Carlsbad, Calif.), 50 ng of pTCF4-CMVpro-FLuc, and 2.5 ng of pCMVpro-Rluc. After 48 hours from the low-molecular-weight compound treatment, 100 μL of 20% Passive Lysis Buffer (PROMEGA, Wisconsin, USA) was added to each well of the 24-well plate. The plate was shaken at ordinary temperature for 15 min and was then allowed to stand overnight at −30° C. On the following day, a Dual-Luciferase (a registered trademark) Reporter Assay System (PROMEGA) was used, and luciferase activity was then measured by using a MiniLumat LB 9506 (Berthold Technologies, Bad Wildbad, German).

[2] = system: CD44-negative and CD44-positive HuH7 cells; assay: Sphere formation capability of sorted HuH7 cells; assay type: cell-based, human; conditions: 50 μM IC-2, 10 μM PN-3-13; one week
Experimental: First, HuH7 cells were collected. Next, the cells were stained with an anti-human CD44 monoclonal antibody (Cell Signaling Technology Inc., Danvers, Mass., USA)), and then with an Alexa 488-labeled goat anti-mouse IgG antibody. After that, a Beckman Coulter-MoFlo XDP (Beckman Coulter Inc., Fullerton, Calif., USA) was used to sort the cells into a CD44-negative fraction and a CD44-positive fraction. The sorted cells were seeded at 5×10^4 cells/well on a 24-well ultra-low-attachment multiwell plate (Corning, N.Y., USA). Subsequently, the cells were cultured at 37° C. in the presence of 5% CO2 in a DMEM/Nutrient Mixture F-12 Ham (Sigma-Aldrich, St. Louis, Mo., USA) containing 20 ng/mL of recombinant human epidermal growth factor, 20 ng/mL of human basic fibroblast growth factor, 1×B27, and L-glutamine. Twenty-four hours after the plating, 1% DSMO, 50 μM IC-2, and 10 μM PN-3-13 were each added to the corresponding well and the cells were further cultured. One week after the chemical treatment, the number of spheres (with a size of 100 μm or larger) in 15 visual fields/well was counted.

[3] = system: HuH7 cells (a liver cancer cell line); assay: Inhibitory effect on cancer cells (WST assay); assay type: cell-based; conditions: 0-50 μM; 4 days (concentration-dependent) or 0, 1, 2, 4 days (time-dependent); DMSO control
Experimental: HuH7 cells (a liver cancer cell line) were cultured in a DMEM on a 10-cm cell culture dish (TPP Techno Plastic Products AG, Trasadingen, Switzerland) at 5% CO2, 37° C., and a humidity of 100%. After the cells were grown to 70 to 90% confluency, 200 μL of a Trypsin/EDTA solution was added thereto to detach the cells. The cells were centrifuged at 1000 rpm for 5 min at room temperature for recovery. Then, the cells in one dish were divided into four dishes and subcultured.
When a concentration-dependent anti-tumor effect was examined, HuH7 cells at 70 to 90% confluency were collected, and 1×10^4 cells were seeded in each well of a 96-well plate (FALCON). When a time-dependent anti-tumor effect was examined, 5×10^3 cells were seeded. Twenty-four hours after the seeding, the cells were treated with IC-2, PN3-13, or HC-1, and further incubated at 37° C. DMSO was used as a control.
The concentration of each low-molecular-weight compound was provided below. […] After that, absorbance (at a measurement wavelength of 450 nm/a control wavelength of 600 nm) was measured by a 96-well microplate reader (TECAN, Zurich, Switzerland). The absorbance of cells was calculated by subtracting the absorbance of reagent blank from the measured result, and was then converted to the viable cell count. Also, the IC50 of each low-molecular-weight compound was determined by using an equation: […]

[4] = system: colon cancer cells (DLD-1, HCT 116, colo 205); assay: Anti-tumor effect on colon cancer cells (TetraColor ONE); assay type: cell-based; conditions: 48 hours
Experimental: Colon cancer cells (DLD-1, HCT 116, colo 205) were cultured in a DMEM on a 10-cm cell culture dish (TPP Techno Plastic Products AG, Trasadingen, Switzerland) at 5% CO2, 37° C., and a humidity of 100%. The cells at 70-90% confluency were split and washed with PBS (−). Next, 300 μL of Trypsin/EDTA was added to 2 mL of PBS (−) and the cells were incubated with this solution at 37° C. for 5 min to detach the cells. Then, 5 mL of DMEM was used to recover the cells. The recovered cells were centrifuged at 1000 rpm for 3 min to remove a supernatant. Then the cells were suspended in DMEM at 1:4 and subcultured.
First, 5×10^5 colon cancer cells (DLD-1, HCT 116, or colo 205) were seeded on a 96-well plate (TPP). Forty-eight hours after the low-molecular-weight compound treatment, 100 μL of 10% TetraColor ONE (SEIKAGAKU CORPORATION, Tokyo, Japan) was added and the mixture was then incubated at 37° C. After that, absorbance (at a measurement wavelength of 450 nm/a control wavelength of 600 nm) was measured by using a 96-well microplate reader (TECAN, Zurich, Switzerland).

[5] = system: Wnt/β-catenin signal; assay: Dual-luciferase reporter assay in colon cancer cells; assay type: cell-based; conditions: DLD-1, HCT 116, colo 205; 48 hours
Experimental: as §1, with “First, 3.34×10^4 colon cancer” for “First, 5×10^4 of HSC2”, “cells (DLD-1, HCT 116, or colo 205)” for “cells”, “of a” for “of the”

For `O=C1[C@H](Cc2ccccc2)N2C(=O)CCN(C(=O)NCc3ccccc3)[C@H]2CN1Cc1cccc2ccccc12` [IC-2], the “inhibitory effect on a Wnt/β-catenin signal in the squamous cell carcinoma cells” value [1] was “exerted an inhibitory effect”, the “formation of spheres, CD44-negative HuH7 cells” value [2] was “inhibited formation of spheres” and the “formation of spheres, CD44-positive HuH7 cells” value [2] was “inhibited formation of spheres”. For the same compound, the “proliferation of HuH7 cells (cell viability)” value [3] was “significantly inhibited proliferation”, the “inhibitory effect on proliferation of the colon cancer cells” value [4] was “exerted an inhibitory effect on proliferation” and the “inhibitory effect on a Wnt/β-catenin signal in the colon cancer cells” value [5] was “exerted an inhibitory effect”.
